In patent US8999964B2, “TGR5 modulators and methods of use thereof” (Intercept Pharmaceuticals, Inc., priority 2008, dated 2015):
Like-named read-outs stand apart in the source and are kept apart here. Marks after values point to notes of the source that are not given here. Each block holds one molecule with its values, some of them ahead of it.

Assays:
[1] = previous study, cited from earlier work
[2] = target: T1, hFXR (Homo sapiens, UniProt Q96RI1); assay: Alphascreen coactivator recruitment assay on FXR; conditions: Table 6; coactivator recruitment (Alphascreen)
T1 sequence (Q96RI1 262-486 limits assumed): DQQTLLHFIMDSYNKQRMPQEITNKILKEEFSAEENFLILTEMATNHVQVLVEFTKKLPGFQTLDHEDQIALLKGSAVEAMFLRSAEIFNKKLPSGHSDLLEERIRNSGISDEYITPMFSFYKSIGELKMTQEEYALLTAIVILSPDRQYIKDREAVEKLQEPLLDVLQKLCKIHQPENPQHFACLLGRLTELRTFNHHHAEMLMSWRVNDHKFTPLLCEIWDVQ

[3] = tested on: HepG2 cells; assay: HepG2 cytotoxicity (ATP decrease, ATP-Lite); conditions: read-out: CYTOTOXICITY ATP decrease EC50, 4 h
[4] = tested on: HepG2 cells; assay: HepG2 apoptosis (caspase-3 activation); type: cell-based; conditions: Homo sapiens, HepG2, 4 h, read-out: APOPTOSIS Caspase-3 activation EC50
[5] = tested on: intestinal bacteria; assay: In vitro metabolic stability in human stools culture; type: in vitro ADME
Description: Homogenized fresh human stools (500 mg) were transferred into sterile vials to which 5 mL of sterilized chopped meat-glucose medium (Scott Lab., Fiskville, R.I.) was added. BAs were then added at a final concentration of 0.05 mM. Vials were incubated at 37° C.; then, at 0, 1, 2, 4, 8 and 24 h after the addition of the BA, the reaction was stopped with 150 μL of 30% KOH. The samples were centrifuged at 3500 rpm for 10 min; from the supernatant the BA were isolated by C-18 solid-phase extraction and analyzed by TLC and HPLC-ES-MS/MS.
Thin-layer chromatography (TLC), utilizing silica gel 0.25 mm thickness plates (Merck, Darmstat, Germany), was employed as the first screening test. The solvent system used for the separation of conjugated BA was composed of propionic acid/isoamyl acetate/water/N-propanol (3:4:1:2, v/v/v/v; solvent I), and that of the unconjugated BA was acetic acid/carbon tetrachloride/isopropyl ether/isoamyl acetate/water/N-propanol/benzene (1:4:6:8:2:2, v/v/v/v/v/v; solvent II).

[6] = in vitro; conditions: human
[7] = Bile fistula rat, femoral (iv) infusion: bile flow, biliary secretion, metabolism; conditions: iv infusion, bile fistula rat
[8] = Critical micellar concentration by surface tension measurements; type: physicochemical; conditions: […] NaCl water solution
Description: The critical micellar concentration (CMC) was determined by surface tension (ST) measurements using a maximum bubble-pressure method which give surface tension values slightly affected by potential impurities […] static methods. […] The surface tension values were plotted against the logarithm of the bile salt concentration; the regression lines corresponding to the two parts of the curve (monomeric and micellar phases) were calculated using the method of least squares, and the intersection of the lines was taken as the CMC value. From the ST vs concentration curves the value of the surface tension at the CMC (equilibrium between monomers and multimers species) was also calculated giving information about the detergency power which is related to the size of the micelles with associate surface tension lowering capacity. The CMC was evaluated by surface tension measurements in non equilibrium conditions i.e. in conditions that impurities slightly affect the surface tension results (FIG. 6). […] The presence of a hydroxyl group in the C-16 beta position reduces the hydrophobic area responsible for back to back interaction, which is to form micelles and therefore, the micelles are small and poorly detergent. This property confers to the molecule a low toxicity when accumulated in a given biological fluid or organ.

[9] = 1-Octanol/water partition coefficient (shake-flask); conditions: bile acids as ionized species, pH 8
[10] = target: T2, bovine serum albumin (Bos taurus, UniProt P02769); assay: Albumin binding by equilibrium dialysis; type: in vitro ADME; parameters: 5% bovine serum albumin-saline solution (pH 7.2); from tissue; host or cells: bovine serum (by the name of the product); conditions: 100 μM BA in 5% bovine serum albumin-saline, pH 7.2
T2 sequence (P02769 25-607): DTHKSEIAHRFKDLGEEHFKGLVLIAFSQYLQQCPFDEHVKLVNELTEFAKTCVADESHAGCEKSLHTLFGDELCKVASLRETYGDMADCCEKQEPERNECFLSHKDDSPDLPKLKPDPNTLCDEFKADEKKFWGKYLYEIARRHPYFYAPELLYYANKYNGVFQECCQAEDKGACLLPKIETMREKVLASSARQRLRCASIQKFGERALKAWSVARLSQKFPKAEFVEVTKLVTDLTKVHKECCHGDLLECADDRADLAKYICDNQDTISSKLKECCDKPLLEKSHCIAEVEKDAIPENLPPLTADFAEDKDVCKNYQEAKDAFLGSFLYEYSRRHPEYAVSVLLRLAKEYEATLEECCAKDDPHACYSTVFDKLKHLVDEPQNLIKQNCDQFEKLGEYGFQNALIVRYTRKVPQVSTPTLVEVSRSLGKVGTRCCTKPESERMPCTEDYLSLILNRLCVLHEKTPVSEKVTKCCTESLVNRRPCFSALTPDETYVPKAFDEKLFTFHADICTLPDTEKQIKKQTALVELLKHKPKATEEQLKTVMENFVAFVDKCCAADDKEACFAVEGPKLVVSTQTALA
Description: The extent of albumin binding was evaluated by equilibrium dialysis at a fixed BA-albumin ratio. Each BA was dissolved at a concentration of 100 μM in 5% bovine serum albumin-saline solution (pH 7.2) and left to stand for 24 h at 25° C. Two milliliters of this solution was dialyzed in cellulose sacs having a molecular weight cut-off of 12,000-14,000 Dalton against 25 ml of saline solution. The system was equilibrated by gently shaking for 72 h at 25° C. BA concentrations of the dialyzed solution (corresponding to the free unbound fraction) and of the starting solution were determined with HPLC-ESI-MS/MS in the same conditions of the previous analysis.
The percentage of albumin binding was calculated from the initial BA concentration and from the unbound concentration in the dialyzed fraction.

[11] = tested on: HepG2 cells; assay: HepG2 necrosis (LDH release); type: cell-based; conditions: Homo sapiens, HepG2, 4 h, read-out: NECROSIS LDH release EC50
[12] = target: T2, bovine serum albumin; conditions: cited from earlier work
[13] = […] NaCl water solution; *values from literature; cited from earlier work
[14] = pH 1
[15] = target: T3, LXRα (Homo sapiens, UniProt Q13133); assay: LXR coactivator recruitment (Alphascreen); type: biochemical; conditions: Table 6
T3 sequence (Q13133 1-447): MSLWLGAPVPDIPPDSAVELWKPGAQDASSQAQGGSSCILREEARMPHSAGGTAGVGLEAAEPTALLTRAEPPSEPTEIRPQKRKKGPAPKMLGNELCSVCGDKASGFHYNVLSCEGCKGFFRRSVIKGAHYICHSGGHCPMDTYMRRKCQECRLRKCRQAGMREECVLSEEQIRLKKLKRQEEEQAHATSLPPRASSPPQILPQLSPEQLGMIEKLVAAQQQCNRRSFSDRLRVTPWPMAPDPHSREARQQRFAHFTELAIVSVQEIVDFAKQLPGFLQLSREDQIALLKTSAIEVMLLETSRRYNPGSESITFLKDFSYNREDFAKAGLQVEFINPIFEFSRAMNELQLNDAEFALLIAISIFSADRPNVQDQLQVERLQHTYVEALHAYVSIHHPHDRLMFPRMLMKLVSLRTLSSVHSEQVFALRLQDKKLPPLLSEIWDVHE

[16] = tested on: HepG2 cells
[17] = target: T4, VDR (Homo sapiens, UniProt P11473); assay: VDR activation, NR selectivity assay; type: biochemical; conditions: Table 6
T4 construct: purchased Invitrogen
T4 sequence (P11473 127-423 limits assumed): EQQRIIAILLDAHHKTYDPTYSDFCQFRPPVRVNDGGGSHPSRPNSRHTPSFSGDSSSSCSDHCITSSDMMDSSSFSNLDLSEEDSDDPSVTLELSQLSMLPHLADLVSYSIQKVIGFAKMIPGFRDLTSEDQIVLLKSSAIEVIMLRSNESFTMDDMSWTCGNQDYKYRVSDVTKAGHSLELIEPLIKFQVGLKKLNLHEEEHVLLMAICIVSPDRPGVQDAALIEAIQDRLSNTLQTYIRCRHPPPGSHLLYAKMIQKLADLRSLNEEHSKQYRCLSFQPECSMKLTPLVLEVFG

[18] = pH 8
[19] = target: T5, PPARδ (Homo sapiens, UniProt Q03181); assay: PPARδ activation, NR selectivity assay; conditions: Table 6
T5 sequence (Q03181 211-439 limits assumed): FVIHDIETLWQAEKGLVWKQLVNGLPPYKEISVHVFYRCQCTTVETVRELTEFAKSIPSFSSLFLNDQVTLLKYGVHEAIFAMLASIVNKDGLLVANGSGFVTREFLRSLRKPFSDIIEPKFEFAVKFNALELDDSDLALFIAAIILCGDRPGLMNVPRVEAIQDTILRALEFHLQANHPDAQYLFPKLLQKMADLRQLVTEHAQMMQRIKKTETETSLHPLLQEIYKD

[20] = target: T6, CAR (Homo sapiens, UniProt Q14994); assay: CAR coactivator recruitment (Lanthascreen); type: biochemical; conditions: Table 6; *: data representing inverse agonism; read-out: CAR Activation EC50
T6 construct: purchased Invitrogen
T6 sequence (Q14994 109-352 limits assumed): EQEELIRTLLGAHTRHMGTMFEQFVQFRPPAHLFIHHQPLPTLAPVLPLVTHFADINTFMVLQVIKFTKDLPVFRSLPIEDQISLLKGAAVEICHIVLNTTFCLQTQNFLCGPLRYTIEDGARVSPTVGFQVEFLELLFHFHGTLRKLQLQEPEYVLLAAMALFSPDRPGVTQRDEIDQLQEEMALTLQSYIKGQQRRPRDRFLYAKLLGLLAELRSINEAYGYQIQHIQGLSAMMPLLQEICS

SMILES: CC1(C)CC[C@]2(C(=O)O)CC[C@]3(C)C(=CC[C@@H]4[C@@]5(C)CC[C@H](O)C(C)(C)[C@@H]5CC[C@]43C)[C@@H]2C1 [OA, oleanolic acid]
Toxicity in animals ([1]; 100 mg/kg/day): some signs of toxicity | Tolerability in animals ([1]; lower dose than 100 mg/kg/day): well tolerated

FXR Activation EC50 [2]: No activity
SMILES: C[C@H](CCC(=O)O)[C@H]1CC[C@H]2[C@@H]3[C@H](O)C[C@@H]4C[C@H](O)CC[C@]4(C)[C@H]3C[C@H](O)[C@]12C [CA, cholic acid, reference compound]

SMILES: CN[C@@H]1C[C@H]2O[C@@](C)([C@@H]1OC)n1c3ccccc3c3c4c(c5c6ccccc6n2c5c31)C(=O)NC4 [Staurosporine]
EC50 [3]: 15 µM

SMILES: C[C@H](CCC(=O)O)[C@H]1CC[C@H]2[C@@H]3[C@H](O)C[C@@H]4C[C@H](O)CC[C@]4(C)[C@H]3CC[C@]12C [CDCA, chenodeoxycholic acid, reference compound]
EC50 [4]: 890 µM | Metabolism in human stool cultures [5]: almost completely metabolized | Half-life time in human stool cultures ([5]; 7α-dehydroxylation, 0.05 mM, 37° C.): almost one hour | EC50 at 4 h [6]: 650 µM | Bile flow with respect to control [7]: No significant differences | Maximum bile flow rate ([7]; control 70): 4.8 mL/h/kg | CMC […] Na+ [8]: 3.2 mM | STCMC: Surface Tension at CMC [8]: 45.5 Dyne/cm | LogPA-: 1-octanol-water partition coefficient [9]: 2.2 | Albumin Binding [10]: 93% | EC50 [11]: > 1000 µM

SMILES: C[C@H](CCC(=O)O)[C@H]1CC[C@H]2[C@@H]3CC[C@@H]4C[C@H](O)CC[C@]4(C)[C@H]3CC[C@]12C [LCA, lithocholic acid]
EC50 [4]: 65 µM | EC50 [11]: 105 µM

SMILES: C[C@H](CCC(=O)O)[C@H]1CCC2C3C(CC[C@@]21C)[C@@]1(C)CC[C@@H](O)CC1[C@@H](C)[C@@H]3O (some centres unmarked) [Compound 6MUDCA]
Albumin Binding [12]: 80* % | CMC […] Na+ [13]: 4.2* mM

Ws: water solubility [14]: hs
SMILES: C[C@H](CCC(=O)NCCS(=O)(=O)O)[C@H]1CC[C@H]2[C@@H]3[C@H](O)C[C@@H]4C[C@H](O)CC[C@]4(C)[C@H]3CC[C@]12C [TCDCA]
Albumin Binding [12]: 70* % | CMC […] Na+ [13]: 3.0* mM

SMILES: C[C@H](CCC(=O)O)[C@H]1CC[C@H]2[C@@H]3[C@@H](O)C[C@@H]4C[C@H](O)CC[C@]4(C)[C@H]3CC[C@]12C [UDCA]
LXRα Activation EC50 [15]: No activity | EC50 [16]: > 1000 µM | CMC […] Na+ [8]: 6.0 mM | STCMC: Surface Tension at CMC [8]: 50.5 Dyne/cm | VDR Activation EC50 [17]: No activity | Ws: water solubility [14]: 7.5 µM | LogPA-: 1-octanol-water partition coefficient [18]: 2.2 | Albumin Binding [10]: 94% | PPARδ Activation EC50 [19]: No activity | EC50 [20]: > 250 µM

Ws: water solubility [14]: hs
SMILES: C[C@H](CCC(=O)NCCS(=O)(=O)O)[C@H]1CC[C@H]2[C@@H]3[C@@H](O)C[C@@H]4C[C@H](O)CC[C@]4(C)[C@H]3CC[C@]12C [TUDCA]
Albumin Binding [12]: 67* % | CMC […] Na+ [13]: 2.2* mM
